Results taken from patent US11707447B1.

Legend:
in vitro = in vitro ADME, human
Text: (§1) A fundamental evaluation in drug development is the assessment of absorption, distribution, metabolism, excretion, and pharmacokinetics (ADME/PK) (Eddershaw et al., 2000, Drug Discovery Today 5(9): 409-414). […] Drug stability upon exposure to human liver microsomes and liver S9 cellular fractions is a common in vitro assay to approximate in vivo, liver-based drug metabolism (Richardson et al., 2016 Drug Metabolism Letters 10:83-90). First-pass metabolism is also often approximated in vitro using intestinal microsome and cellular S9 fractions (Hatley et al., 2017, Biopharmaceuticals & Drug Disposition, 38(2):155-160). Further, it is well known that human serum, and particularly circulating serum esterases can contribute to systemic drug metabolism (Williams, F M 1987, Pharmacology and Therapeutics, 34:99-109). Many pharmacological agents are classified as prodrugs, as they undergo metabolic transformation in vivo upon administration to release the active drug compound into the systemic compartment (Zawilska J B, et al. 2013, Pharmacological Reports, 65:1-14). Psilocybin, a serotonergic psychedelic agent, is well known prodrug that is metabolized into the psychoactive product, psilocin (Dinis-Oliveira, R J 2017, Drug Metabolism Reviews, 49(1):84-91). To evaluate the capacity of test molecules to similarly serve as prodrugs of psilocin, time-dependent, metabolic stability assays using human AB serum, human intestinal microsomes (HIM), human intestinal S9 fractions (HIS9), human liver microsomes (HLM), human liver S9 fractions (HLS9), human alkaline phosphatase, and porcine esterase were performed. […] Liquid chromatography coupled mass spectrometry (LC-MS) was employed to track the conversion of the test molecules into psilocin. All intestinal and liver fractions and NADPH RapidStart reagent was purchased from Sekisui/XenoTech. Human AB serum was purchased from Sigma. For intestine and liver metabolism assays, 2.5 μM candidate compounds were incubated in 400 μg/ml of each cellular fraction (HLM, HLS9, HIM, or HIS9) in 50 mM potassium phosphate buffer (pH 7.4) containing 3 mM MgCl2 and 1 mM EDTA supplemented with NADPH RapidStart at 37° C. Samples were taken at the start of the assay, and at every 20 minutes for 2 hours. Time-point samples were precipitated with 1:1 volume of acetonitrile to quench the reaction before centrifugation at 4000×g for 20 minutes. Supernatants were analyzed for the presence of candidate prodrugs (parent molecule) and psilocin (the predicted metabolite) using Orbitrap LC-MS (Thermo Scientific) using previously described methods (Menéndez-Perdomo et al., 2021, J. Mass Spectrom., 56: e4683). The serum assays were carried out in 10% human AB serum in 50 mM potassium phosphate buffer (pH 7.4) containing 3 mM MgCl2 and 1 mM EDTA. Bovine alkaline phosphatase assays were carried out using one unit of purified enzyme in 50 mM potassium phosphate buffer (pH 7.4) containing 3 mM MgCl2 and 1 mM EDTA. Porcine esterase assays were carried out using one unit of purified enzyme in 50 mM potassium phosphate buffer (pH 7.4) containing 3 mM MgCl2 and 1 mM EDTA. Assay concentrations (μM) of both parent ‘prodrug’ molecule and psilocin metabolite, as quantified through LC-MS using routine standard curve procedures, were plotted as functions of assay time (minutes). The metabolism rate (T1/2) was determined from the metabolism curve plot using the one phase decay feature of GraphPad PRISM software (Version 9.2.0). The quantity of parent prodrug at time zero was set as 100%.
Positive controls were first tested to ensure that assays were functioning properly.

[1] = In vitro metabolic stability / psilocin release, human AB serum; format: in vitro ADME; settings: AB serum
Text: as §1, with “For intestine and liver metabolism assays, 2.5 μM candidate compounds were incubated in 400 μg/ml of each cellular fraction (HLM, HLS9, HIM, or HIS9) in 50 mM potassium phosphate buffer (pH 7.4) containing 3 mM MgCl2 and 1 mM EDTA supplemented with NADPH RapidStart at 37° C. Samples were taken at the start of the assay, and at every 20 minutes for 2 hours. Time-point samples were precipitated with 1:1 volume of acetonitrile to quench the reaction before centrifugation at 4000×g for 20 minutes.” left out, “The serum assays were carried out in 10% human AB serum in 50 mM potassium phosphate buffer (pH 7.4) containing 3 mM MgCl2 and 1 mM EDTA. Bovine alkaline phosphatase assays were carried out using one unit of purified enzyme in 50 mM potassium phosphate buffer (pH 7.4) containing 3 mM MgCl2 and 1 mM EDTA. Porcine esterase assays were carried out using one unit of purified enzyme in 50 mM potassium phosphate buffer (pH 7.4) containing 3 mM MgCl2 and 1 mM EDTA.” left out, “100%. […]” for “100%.”

5-HT2A receptor [2] = biological target: T1, 5-HT2A receptor (Mus musculus, UniProt P35363); assay: Drug-induced Head Twitch Response (HTR) in mice; format: in vivo; settings: 1 mg/kg i.p., 15-to-30-minute window after dosing, vs vehicle
T1 construct: tissue Charles River; host or cells: whole animal, C57BL/6-Elite mice (brain neurons)

[3] = Mouse pharmacokinetic (PK) evaluation of drug metabolism to psilocin; settings: mean ± SD
5-HT1A receptor = biological target: T2, 5-HT1A receptor (Homo sapiens, UniProt P08908); assay: cAMP-Glo assay in +5-HT1A / -5-HT1A CHO-K1 cells; format: cell-based; settings: forskolin-stimulated +5-HT1A vs -5-HT1A cells, increasing ligand
T2 construct: host or cells: CHO-K1 (co-expressing Ga15)
T2 sequence (P08908 1-422): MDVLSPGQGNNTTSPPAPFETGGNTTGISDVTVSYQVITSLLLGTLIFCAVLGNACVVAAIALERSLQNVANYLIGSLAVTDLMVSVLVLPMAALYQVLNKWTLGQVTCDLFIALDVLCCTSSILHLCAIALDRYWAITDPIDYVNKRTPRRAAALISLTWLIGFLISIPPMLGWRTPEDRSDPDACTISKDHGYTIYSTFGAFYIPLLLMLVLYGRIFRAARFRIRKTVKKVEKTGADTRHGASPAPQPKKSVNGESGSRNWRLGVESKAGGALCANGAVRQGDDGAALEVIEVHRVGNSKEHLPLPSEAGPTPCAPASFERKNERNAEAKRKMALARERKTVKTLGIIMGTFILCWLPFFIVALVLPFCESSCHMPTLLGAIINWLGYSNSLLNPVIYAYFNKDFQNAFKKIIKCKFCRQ

5-HT2A receptor [4] = biological target: 5-HT2A receptor (Homo sapiens, UniProt P28223); assay: [3H]ketanserin competition radioligand binding assay (SPA); settings: control ligands
[5] = 1 mg/kg oral of administered compound
[6] = 3 mg/kg oral of administered compound
[7] = 10 mg/kg oral of administered compound

T1 sequence (P35363 whole entry): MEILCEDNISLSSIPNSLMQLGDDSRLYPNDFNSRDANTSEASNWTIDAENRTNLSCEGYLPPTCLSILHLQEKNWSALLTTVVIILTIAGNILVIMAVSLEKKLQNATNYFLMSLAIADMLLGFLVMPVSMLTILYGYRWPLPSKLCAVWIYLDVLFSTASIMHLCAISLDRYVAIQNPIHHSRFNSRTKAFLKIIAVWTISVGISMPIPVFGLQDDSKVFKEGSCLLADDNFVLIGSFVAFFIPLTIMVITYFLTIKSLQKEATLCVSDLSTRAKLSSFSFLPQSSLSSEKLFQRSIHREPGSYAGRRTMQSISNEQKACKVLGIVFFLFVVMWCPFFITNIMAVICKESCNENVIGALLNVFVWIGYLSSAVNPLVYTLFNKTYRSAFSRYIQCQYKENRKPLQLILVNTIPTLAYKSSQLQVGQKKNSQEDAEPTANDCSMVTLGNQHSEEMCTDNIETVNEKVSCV
Sequence of 5-HT2A receptor (Homo sapiens, UniProt P28223) (P28223 whole entry): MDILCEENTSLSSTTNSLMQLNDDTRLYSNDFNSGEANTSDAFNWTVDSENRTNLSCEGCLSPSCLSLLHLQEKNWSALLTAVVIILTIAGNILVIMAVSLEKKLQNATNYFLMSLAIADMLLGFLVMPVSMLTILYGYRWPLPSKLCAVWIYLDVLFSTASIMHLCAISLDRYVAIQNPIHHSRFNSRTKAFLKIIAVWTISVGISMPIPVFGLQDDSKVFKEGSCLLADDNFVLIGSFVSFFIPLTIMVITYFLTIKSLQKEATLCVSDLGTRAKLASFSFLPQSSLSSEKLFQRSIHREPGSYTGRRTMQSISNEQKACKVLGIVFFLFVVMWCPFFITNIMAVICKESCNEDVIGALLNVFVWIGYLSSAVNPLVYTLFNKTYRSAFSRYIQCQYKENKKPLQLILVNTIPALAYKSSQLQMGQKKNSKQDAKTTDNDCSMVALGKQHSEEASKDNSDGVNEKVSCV

## CN(C)CCc1c[nH]c2cccc(OC(=O)OCc3ccccc3)c12 [B(II), reference compound]
In vitro; HLM
  metabolic stability / conversion to psilocin (in words): did not readily dissociate to psilocin under any conditions
In vitro; HLS9
  metabolic stability / conversion to psilocin (in words): did not readily dissociate to psilocin under any conditions
[1]
  metabolic stability / conversion to psilocin (in words): failed completely to dissociate
5-HT2A receptor [2]
  Head Twitch Response (in words): elicit head twitching
[3]; 1 mg/kg oral of administered compound, 0.25 h
  Plasma concentration of psilocin: 19.7 ± 5.50 ng/mL
[3]; 1 mg/kg oral of administered compound, 0.5 h
  Plasma concentration of psilocin: 11.9 ± 2.03 ng/mL
[3]; 1 mg/kg oral of administered compound, 1 h
  Plasma concentration of psilocin: 4.63 ± 0.788 ng/mL
[3]; 1 mg/kg oral of administered compound, 2 h
  Plasma concentration of psilocin: 2.20 ± 0.850 ng/mL
[3]; 1 mg/kg oral of administered compound, 4 h
  Plasma concentration of psilocin: 2.05 ± 0.359 ng/mL
[3]; 1 mg/kg oral of administered compound, 6 h
  Plasma concentration of psilocin: 0.739 ± 0.288 ng/mL
[3]; 1 mg/kg oral of administered compound, 8 h
  Plasma concentration of psilocin: 0.453 ± 0.0460 ng/mL
[3]; [5]
  AUC0-tlast/Dose (plasma psilocin): 21.0 ± 1.55 kg·ng·h/mL/mg
  Cmax/Dose (plasma psilocin): 19.7 ± 5.50 kg·ng/mL/mg
[3]; 3 mg/kg oral of administered compound, 0.25 h
  Plasma concentration of psilocin: 55.6 ± 8.67 ng/mL
[3]; 3 mg/kg oral of administered compound, 0.5 h
  Plasma concentration of psilocin: 32.3 ± 4.98 ng/mL
[3]; 3 mg/kg oral of administered compound, 1 h
  Plasma concentration of psilocin: 9.29 ± 3.05 ng/mL
[3]; 3 mg/kg oral of administered compound, 2 h
  Plasma concentration of psilocin: 7.67 ± 0.921 ng/mL
[3]; 3 mg/kg oral of administered compound, 4 h
  Plasma concentration of psilocin: 6.76 ± 2.13 ng/mL
[3]; 3 mg/kg oral of administered compound, 6 h
  Plasma concentration of psilocin: 2.41 ± 0.845 ng/mL
[3]; 3 mg/kg oral of administered compound, 8 h
  Plasma concentration of psilocin: 0.722 ± 0.368 ng/mL
[3]; [6]
  AUC0-tlast/Dose (plasma psilocin): 20.3 ± 2.78 kg·ng·h/mL/mg
  Cmax/Dose (plasma psilocin): 18.5 ± 2.89 kg·ng/mL/mg
[3]; 10 mg/kg oral of administered compound, 0.25 h
  Plasma concentration of psilocin: 306 ± 34.6 ng/mL
[3]; 10 mg/kg oral of administered compound, 0.5 h
  Plasma concentration of psilocin: 125 ± 16.3 ng/mL
[3]; 10 mg/kg oral of administered compound, 1 h
  Plasma concentration of psilocin: 49.6 ± 10.5 ng/mL
[3]; 10 mg/kg oral of administered compound, 2 h
  Plasma concentration of psilocin: 20.7 ± 1.42 ng/mL
[3]; 10 mg/kg oral of administered compound, 4 h
  Plasma concentration of psilocin: 31.4 ± 6.34 ng/mL
[3]; 10 mg/kg oral of administered compound, 6 h
  Plasma concentration of psilocin: 11.5 ± 1.43 ng/mL
[3]; 10 mg/kg oral of administered compound, 8 h
  Plasma concentration of psilocin: 6.38 ± 2.98 ng/mL
[3]; 10 mg/kg oral of administered compound, 24 h
  Plasma concentration of psilocin: 0.104 ng/mL
[3]; [7]
  AUC0-tlast/Dose (plasma psilocin): 28.2 ± 4.12 kg·ng·h/mL/mg
  Cmax/Dose (plasma psilocin): 30.6 ± 3.46 kg·ng/mL/mg

## CN(C)CCc1c[nH]c2cccc(O)c12 [psilocin]
5-HT1A receptor
  cAMP level / 5-HT1A receptor modulation (in words): reduction in cAMP levels
5-HT2A receptor [4]
  5-HT2A competition binding (in words): positive control (binding)
